The record followed here is paper PMC6123015 (Biochemistry, 2018).

This test has as its target T1, macrophage migration inhibitory factor-1 (MIF-1) (Homo sapiens, UniProt P14174).
T1 sequence (P14174 2-115): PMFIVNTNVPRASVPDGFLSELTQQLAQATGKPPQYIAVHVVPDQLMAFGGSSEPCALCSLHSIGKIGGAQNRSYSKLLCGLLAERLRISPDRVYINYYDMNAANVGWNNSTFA
In words: HPP tautomerase inhibition kinetics with purified protein. It is filed as biochemical.

In general, Ki refers to the equilibrium dissociation constant of an inhibitor or competing ligand from its target. The low end stands for tighter binding, the high end for weaker binding.

For the molecule `O=C(O)c1cccc(-c2cc(C(=O)O)ncc2C(=O)O)c1` [4-CPPC, 4-(3-Carboxyphenyl)-2,5pyridinedicarboxylic acid], the affinity, expressed as Ki, was 431 ± 37 µM.
